Experimental data as given in the supplement of paper PMC10307832.

Key:
Test in all cases: relative viability (nuclei count vs DMSO), 5 days (fraction); higher = more cells survive
Crenolanib + Palbociclib = compound: CC1(COc2ccc3c(c2)ncn3-c2ccc3cccc(N4CCC(N)CC4)c3n2)COC1 [Crenolanib] + CC(=O)c1c(C)c2cnc(Nc3ccc(N4CCNCC4)cn3)nc2n(C2CCCC2)c1=O [Palbociclib] (partner 0.5 µM)
Procedure, shortened: (§1)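 Lung cancer cell lines were pin-tool dosed in 1536-well plates on the day after seeding, with either a lone drug or a fixed anchor-drug dose plus five library-drug doses (not always all listed) in √10 steps. Nuclei were counted on 4× images after 5 days. Relative viability is the ratio of treated-well to vehicle-well nuclei counts, with each value a median of duplicate plates.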

Tivantinib + Bortezomib = compound: O=C1NC(=O)[C@@H](c2cn3c4c(cccc24)CCC3)[C@@H]1c1c[nH]c2ccccc12 [Tivantinib] + CC(C)C[C@H](NC(=O)[C@H](Cc1ccccc1)NC(=O)c1cnccn1)B(O)O [Bortezomib] (partner 0.002 µM)
Procedure, shortened: as §1

Crenolanib + Crizotinib = compound: CC1(COc2ccc3c(c2)ncn3-c2ccc3cccc(N4CCC(N)CC4)c3n2)COC1 [Crenolanib] + C[C@@H](Oc1cc(-c2cnn(C3CCNCC3)c2)cnc1N)c1c(Cl)ccc(F)c1Cl [Crizotinib] (partner 1 µM)
Procedure, shortened: as §1

Tivantinib + Vorinostat = compound: O=C1NC(=O)[C@@H](c2cn3c4c(cccc24)CCC3)[C@@H]1c1c[nH]c2ccccc12 [Tivantinib] + O=C(CCCCCCC(=O)Nc1ccccc1)NO [Vorinostat] (partner 1 µM)
Procedure, shortened: as §1

HCC-827
relative viability (Crenolanib + Palbociclib; first compound 0.01 µM): 0.453
relative viability (Crenolanib + Palbociclib; first compound 0.03162 µM): 0.484
relative viability (Crenolanib + Palbociclib; first compound 0.1 µM): 0.503
relative viability (Crenolanib + Palbociclib; first compound 0.3162 µM): 0.482
relative viability (Crenolanib + Palbociclib; first compound 1 µM): 0.507
relative viability (Tivantinib + Bortezomib; first compound 0.01 µM): 1.02
relative viability (Tivantinib + Bortezomib; first compound 0.03162 µM): 1.12
relative viability (Tivantinib + Bortezomib; first compound 0.1 µM): 1.03
relative viability (Tivantinib + Bortezomib; first compound 0.3162 µM): 1.11
relative viability (Crenolanib + Crizotinib; first compound 0.01 µM): 0.938
relative viability (Crenolanib + Crizotinib; first compound 0.03162 µM): 0.885
relative viability (Crenolanib + Crizotinib; first compound 0.1 µM): 0.932
relative viability (Crenolanib + Crizotinib; first compound 0.3162 µM): 0.964
relative viability (Crenolanib + Crizotinib; first compound 1 µM): 0.884
relative viability (Tivantinib + Vorinostat; first compound 0.01 µM): 0.826
relative viability (Tivantinib + Vorinostat; first compound 0.03162 µM): 0.809
relative viability (Tivantinib + Vorinostat; first compound 0.1 µM): 0.862

HOP-62
relative viability (Crenolanib + Palbociclib; first compound 0.01 µM): 0.457
relative viability (Crenolanib + Palbociclib; first compound 0.03162 µM): 0.45
relative viability (Crenolanib + Palbociclib; first compound 0.1 µM): 0.461
relative viability (Crenolanib + Palbociclib; first compound 0.3162 µM): 0.497
relative viability (Crenolanib + Palbociclib; first compound 1 µM): 0.481
relative viability (Tivantinib + Bortezomib; first compound 0.01 µM): 0.948
relative viability (Tivantinib + Bortezomib; first compound 0.1 µM): 0.591
relative viability (Tivantinib + Bortezomib; first compound 0.3162 µM): 1.05
relative viability (Crenolanib + Crizotinib; first compound 0.01 µM): 0.87
relative viability (Crenolanib + Crizotinib; first compound 0.03162 µM): 1.03
relative viability (Crenolanib + Crizotinib; first compound 0.1 µM): 0.984
relative viability (Crenolanib + Crizotinib; first compound 0.3162 µM): 0.821
relative viability (Crenolanib + Crizotinib; first compound 1 µM): 1.02
relative viability (Tivantinib + Vorinostat; first compound 0.01 µM): 0.606
relative viability (Tivantinib + Vorinostat; first compound 0.03162 µM): 0.301
relative viability (Tivantinib + Vorinostat; first compound 0.1 µM): 0.554
relative viability (Tivantinib + Vorinostat; first compound 0.3162 µM): 0.803

IA-LM
relative viability (Tivantinib + Bortezomib; first compound 0.01 µM): 0.855
relative viability (Tivantinib + Bortezomib; first compound 0.03162 µM): 0.942
relative viability (Tivantinib + Bortezomib; first compound 0.1 µM): 0.743
relative viability (Tivantinib + Bortezomib; first compound 0.3162 µM): 0.848
relative viability (Crenolanib + Crizotinib; first compound 0.01 µM): 0.925
relative viability (Crenolanib + Crizotinib; first compound 0.03162 µM): 0.9
relative viability (Crenolanib + Crizotinib; first compound 0.1 µM): 0.631
relative viability (Crenolanib + Crizotinib; first compound 0.3162 µM): 1.29
relative viability (Crenolanib + Crizotinib; first compound 1 µM): 1.26
relative viability (Tivantinib + Vorinostat; first compound 0.01 µM): 1.01
relative viability (Tivantinib + Vorinostat; first compound 0.03162 µM): 0.826
relative viability (Tivantinib + Vorinostat; first compound 0.1 µM): 0.87
relative viability (Tivantinib + Vorinostat; first compound 0.3162 µM): 0.895

LC-2-ad
relative viability (Crenolanib + Palbociclib; first compound 0.01 µM): 0.476
relative viability (Crenolanib + Palbociclib; first compound 0.03162 µM): 0.466
relative viability (Crenolanib + Palbociclib; first compound 0.1 µM): 0.505
relative viability (Crenolanib + Palbociclib; first compound 0.3162 µM): 0.541
relative viability (Crenolanib + Palbociclib; first compound 1 µM): 0.442
relative viability (Tivantinib + Bortezomib; first compound 0.01 µM): 1.18
relative viability (Tivantinib + Bortezomib; first compound 0.03162 µM): 0.853
relative viability (Tivantinib + Bortezomib; first compound 0.1 µM): 0.976
relative viability (Tivantinib + Bortezomib; first compound 0.3162 µM): 1.08
relative viability (Crenolanib + Crizotinib; first compound 0.01 µM): 0.439
relative viability (Crenolanib + Crizotinib; first compound 0.03162 µM): 0.444
relative viability (Crenolanib + Crizotinib; first compound 0.1 µM): 0.56
relative viability (Crenolanib + Crizotinib; first compound 0.3162 µM): 0.44
relative viability (Crenolanib + Crizotinib; first compound 1 µM): 0.486
relative viability (Tivantinib + Vorinostat; first compound 0.01 µM): 0.694
relative viability (Tivantinib + Vorinostat; first compound 0.03162 µM): 0.694
relative viability (Tivantinib + Vorinostat; first compound 0.1 µM): 0.655
relative viability (Tivantinib + Vorinostat; first compound 0.3162 µM): 0.715

LCLC-97TM1
relative viability (Crenolanib + Palbociclib; first compound 0.01 µM): 0.244
relative viability (Crenolanib + Palbociclib; first compound 0.03162 µM): 0.183
relative viability (Crenolanib + Palbociclib; first compound 0.1 µM): 0.268
relative viability (Crenolanib + Palbociclib; first compound 0.3162 µM): 0.277
relative viability (Crenolanib + Palbociclib; first compound 1 µM): 0.232
relative viability (Tivantinib + Bortezomib; first compound 0.01 µM): 0.742
relative viability (Tivantinib + Bortezomib; first compound 0.03162 µM): 0.734
relative viability (Tivantinib + Bortezomib; first compound 0.1 µM): 0.517
relative viability (Tivantinib + Bortezomib; first compound 0.3162 µM): 0.764
relative viability (Crenolanib + Crizotinib; first compound 0.01 µM): 0.42
relative viability (Crenolanib + Crizotinib; first compound 0.03162 µM): 0.355
relative viability (Crenolanib + Crizotinib; first compound 0.1 µM): 0.479
relative viability (Crenolanib + Crizotinib; first compound 0.3162 µM): 0.324
relative viability (Crenolanib + Crizotinib; first compound 1 µM): 0.457
relative viability (Tivantinib + Vorinostat; first compound 0.01 µM): 0.71
relative viability (Tivantinib + Vorinostat; first compound 0.03162 µM): 0.284
relative viability (Tivantinib + Vorinostat; first compound 0.1 µM): 0.671
relative viability (Tivantinib + Vorinostat; first compound 0.3162 µM): 0.833

LCLC-103H
relative viability (Crenolanib + Palbociclib; first compound 0.01 µM): 0.541
relative viability (Crenolanib + Palbociclib; first compound 0.03162 µM): 0.441
relative viability (Crenolanib + Palbociclib; first compound 0.1 µM): 0.465
relative viability (Crenolanib + Palbociclib; first compound 0.3162 µM): 0.447
relative viability (Crenolanib + Palbociclib; first compound 1 µM): 0.492
relative viability (Tivantinib + Bortezomib; first compound 0.01 µM): 0.909
relative viability (Tivantinib + Bortezomib; first compound 0.03162 µM): 0.895
relative viability (Tivantinib + Bortezomib; first compound 0.1 µM): 0.966
relative viability (Tivantinib + Bortezomib; first compound 0.3162 µM): 1.03
relative viability (Crenolanib + Crizotinib; first compound 0.01 µM): 1.12
relative viability (Crenolanib + Crizotinib; first compound 0.03162 µM): 1.03
relative viability (Crenolanib + Crizotinib; first compound 0.1 µM): 1.06
relative viability (Crenolanib + Crizotinib; first compound 0.3162 µM): 1
relative viability (Crenolanib + Crizotinib; first compound 1 µM): 1.01
relative viability (Tivantinib + Vorinostat; first compound 0.01 µM): 0.756
relative viability (Tivantinib + Vorinostat; first compound 0.03162 µM): 0.642
relative viability (Tivantinib + Vorinostat; first compound 0.1 µM): 0.749
relative viability (Tivantinib + Vorinostat; first compound 0.3162 µM): 0.936

LK-2
relative viability (Crenolanib + Palbociclib; first compound 0.01 µM): 0.667
relative viability (Crenolanib + Palbociclib; first compound 0.03162 µM): 0.532
relative viability (Crenolanib + Palbociclib; first compound 0.1 µM): 0.88
relative viability (Crenolanib + Palbociclib; first compound 0.3162 µM): 0.734
relative viability (Crenolanib + Palbociclib; first compound 1 µM): 1.06
relative viability (Crenolanib + Crizotinib; first compound 0.01 µM): 0.238
relative viability (Crenolanib + Crizotinib; first compound 0.03162 µM): 0.24
relative viability (Crenolanib + Crizotinib; first compound 0.1 µM): 0.219
relative viability (Crenolanib + Crizotinib; first compound 0.3162 µM): 0.227
relative viability (Crenolanib + Crizotinib; first compound 1 µM): 0.213
relative viability (Tivantinib + Vorinostat; first compound 0.01 µM): 0.219
relative viability (Tivantinib + Vorinostat; first compound 0.03162 µM): 0.34
relative viability (Tivantinib + Vorinostat; first compound 0.1 µM): 0.217
relative viability (Tivantinib + Vorinostat; first compound 0.3162 µM): 0.311

LOU-NH91
relative viability (Crenolanib + Palbociclib; first compound 0.01 µM): 0.524
relative viability (Crenolanib + Palbociclib; first compound 0.03162 µM): 0.481
relative viability (Crenolanib + Palbociclib; first compound 0.1 µM): 0.518
relative viability (Crenolanib + Palbociclib; first compound 0.3162 µM): 0.539
relative viability (Crenolanib + Palbociclib; first compound 1 µM): 0.548
relative viability (Tivantinib + Bortezomib; first compound 0.01 µM): 0.479
relative viability (Tivantinib + Bortezomib; first compound 0.03162 µM): 0.496
relative viability (Tivantinib + Bortezomib; first compound 0.1 µM): 0.522
relative viability (Tivantinib + Bortezomib; first compound 0.3162 µM): 0.473
relative viability (Crenolanib + Crizotinib; first compound 0.01 µM): 0.765
relative viability (Crenolanib + Crizotinib; first compound 0.03162 µM): 0.753
relative viability (Crenolanib + Crizotinib; first compound 0.1 µM): 0.688
relative viability (Crenolanib + Crizotinib; first compound 0.3162 µM): 0.722
relative viability (Crenolanib + Crizotinib; first compound 1 µM): 0.729
relative viability (Tivantinib + Vorinostat; first compound 0.01 µM): 0.838
relative viability (Tivantinib + Vorinostat; first compound 0.03162 µM): 0.811
relative viability (Tivantinib + Vorinostat; first compound 0.1 µM): 0.916
relative viability (Tivantinib + Vorinostat; first compound 0.3162 µM): 0.749

LU99A
relative viability (Crenolanib + Palbociclib; first compound 0.01 µM): 0.411
relative viability (Crenolanib + Palbociclib; first compound 0.03162 µM): 0.453
relative viability (Crenolanib + Palbociclib; first compound 0.1 µM): 0.4
relative viability (Crenolanib + Palbociclib; first compound 0.3162 µM): 0.432
relative viability (Crenolanib + Palbociclib; first compound 1 µM): 0.441
relative viability (Tivantinib + Bortezomib; first compound 0.01 µM): 1.19
relative viability (Tivantinib + Bortezomib; first compound 0.03162 µM): 0.99
relative viability (Tivantinib + Bortezomib; first compound 0.1 µM): 1.18
relative viability (Tivantinib + Bortezomib; first compound 0.3162 µM): 1.09
relative viability (Crenolanib + Crizotinib; first compound 0.01 µM): 0.565
relative viability (Crenolanib + Crizotinib; first compound 0.03162 µM): 0.654
relative viability (Crenolanib + Crizotinib; first compound 0.1 µM): 0.615
relative viability (Crenolanib + Crizotinib; first compound 0.3162 µM): 0.558
relative viability (Crenolanib + Crizotinib; first compound 1 µM): 0.568
relative viability (Tivantinib + Vorinostat; first compound 0.01 µM): 0.514
relative viability (Tivantinib + Vorinostat; first compound 0.03162 µM): 0.438
relative viability (Tivantinib + Vorinostat; first compound 0.1 µM): 0.456
relative viability (Tivantinib + Vorinostat; first compound 0.3162 µM): 0.47
